Assay: xn = mol fraction of the nth substance listed
Conditions: 100 kPa, Liquid; for viscosity: Concentric cylinders viscometry; for mass density: Vibrating tube method

CCCCn1cc[n+](C)c1.O=[N+]([O-])[O-] [1-butyl-3-methylimidazolium nitrate] + CC(C)O
Conditions	mass density [kg/m3]	viscosity [mPa·s]
293.15 K, x1 = 0.0815	853.9	4.18
293.15 K, x1 = 0.1596	906.3	6.88
293.15 K, x1 = 0.2405	951.1	10.99
293.15 K, x1 = 0.3495	1000.3	18
293.15 K, x1 = 0.4405	1034	26
293.15 K, x1 = 0.5607	1070.7	39.8
293.15 K, x1 = 0.6506	1093.8	53.28
293.15 K, x1 = 0.7413	1114.1	69.94
293.15 K, x1 = 0.8515	1135	105.6
293.15 K, x1 = 0.9396	1149.7	157.7
293.15 K, x1 = 1	1158.3	223.54
298.15 K, x1 = 0.0815	849.9	3.66
298.15 K, x1 = 0.1596	902.5	5.95
298.15 K, x1 = 0.2405	947.4	9.26
298.15 K, x1 = 0.3495	996.7	15.42
298.15 K, x1 = 0.4405	1030.5	22
298.15 K, x1 = 0.5607	1067.4	33.04
298.15 K, x1 = 0.6506	1090.6	42.9
298.15 K, x1 = 0.7413	1110.9	55.5
298.15 K, x1 = 0.8515	1131.9	81.6
298.15 K, x1 = 0.9396	1146.6	122.4
298.15 K, x1 = 1	1155.2	168.97
303.15 K, x1 = 0.0815	846	3.29
303.15 K, x1 = 0.1596	898.7	5.22
303.15 K, x1 = 0.2405	943.8	8
303.15 K, x1 = 0.3495	993.2	12.83
303.15 K, x1 = 0.4405	1027.2	17.76
303.15 K, x1 = 0.5607	1064.2	26.4
303.15 K, x1 = 0.6506	1087.4	34.49
303.15 K, x1 = 0.7413	1107.9	45.29
303.15 K, x1 = 0.8515	1129	63.3
303.15 K, x1 = 0.9396	1143.6	90.3
303.15 K, x1 = 1	1152.3	125.36
308.15 K, x1 = 0.0815	841.9	2.93
308.15 K, x1 = 0.1596	894.8	4.55
308.15 K, x1 = 0.2405	940.1	6.55
308.15 K, x1 = 0.3495	989.6	10.13
308.15 K, x1 = 0.4405	1023.7	14.06
308.15 K, x1 = 0.5607	1060.8	20.79
308.15 K, x1 = 0.6506	1084.2	27.05
308.15 K, x1 = 0.7413	1104.7	36.2
308.15 K, x1 = 0.8515	1126	50.5
308.15 K, x1 = 0.9396	1140.6	72.4
308.15 K, x1 = 1	1149.3	96.74
313.15 K, x1 = 0.0815	837.9	2.53
313.15 K, x1 = 0.1596	891.1	3.95
313.15 K, x1 = 0.2405	936.5	5.7
313.15 K, x1 = 0.3495	986.4	8.96
313.15 K, x1 = 0.4405	1020.6	12.29
313.15 K, x1 = 0.5607	1057.8	17.93
313.15 K, x1 = 0.6506	1081.3	23.42
313.15 K, x1 = 0.7413	1101.7	30.6
313.15 K, x1 = 0.8515	1123.2	42.3
313.15 K, x1 = 0.9396	1137.8	58.7
313.15 K, x1 = 1	1146.5	75.12
318.15 K, x1 = 0.0815	833.7	2.25
318.15 K, x1 = 0.1596	887.1	3.53
318.15 K, x1 = 0.2405	932.8	5.15
318.15 K, x1 = 0.3495	982.9	7.91
318.15 K, x1 = 0.4405	1017.3	10.89
318.15 K, x1 = 0.5607	1054.7	15.75
318.15 K, x1 = 0.6506	1078.3	20.46
318.15 K, x1 = 0.7413	1098.9	26.05
318.15 K, x1 = 0.8515	1120.5	35.1
318.15 K, x1 = 0.9396	1135	45.9
318.15 K, x1 = 1	1143.8	56.28
323.15 K, x1 = 0.0815	829.5	2
323.15 K, x1 = 0.1596	883.3	3.09
323.15 K, x1 = 0.2405	929.2	4.61
323.15 K, x1 = 0.3495	979.5	7.17
323.15 K, x1 = 0.4405	1014.1	9.8
323.15 K, x1 = 0.5607	1051.7	14.17
323.15 K, x1 = 0.6506	1075.4	18.14
323.15 K, x1 = 0.7413	1096.1	23.09
323.15 K, x1 = 0.8515	1117.8	30.31
323.15 K, x1 = 0.9396	1132.5	37.81
323.15 K, x1 = 1	1141.2	45.17

— the NIST ThermoML archive (doi:10.1016/j.jct.2019.04.010)
